Holding throughout (format): biochemical
What all share (conditions): ADP-Glo SIK kinase assay

The target of assay [1] is T1, SIK1 (Homo sapiens, UniProt P57059).
T1 construct: purchased Carna Biosciences 02-131
In words: ADP-Glo kinase assay, SIK1. The method, boiled down: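 Enzyme–substrate mix was started with ATP and incubated 120 min at RT. ADP formed was quantified by ADP-Glo: 40 min ATP depletion, then 30 min detection reagent converting ADP to ATP for luciferase luminescence, which rises with kinase activity. Controls: 1% DMSO and 10 μM staurosporine (final).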

Assay [2] deals with T2, SIK2 (Homo sapiens, UniProt Q9H0K1).
T2 construct: purchased ThermoFisher Scientific PV4792
In words: ADP-Glo kinase assay, SIK2. The method, boiled down: (§1)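 Wells with 1% DMSO or 10 μM staurosporine (final) define the control window. The kinase reaction with substrate and ATP runs 120 min at RT, followed by ADP-Glo detection: ATP depletion (40 min) and ADP-derived luminescence (30 min).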

Assay [3] deals with T3, SIK3 (Homo sapiens, UniProt Q9Y2K2).
T3 construct: purchased SignalChem S12-11G-100
The assay can be described thus: ADP-Glo kinase assay, SIK3. The gist of the method:
as §1

Data on 23 molecules can be found in patent US12264156B2, “Compounds and pharmaceutical compositions thereof for the treatment of diseases” (GALAPAGOS NV, priority 2018, dated 2025).

Each structure is given as a SMILES string. pIC50: −log10 of the molar value.

T1 sequence (P57059 whole entry): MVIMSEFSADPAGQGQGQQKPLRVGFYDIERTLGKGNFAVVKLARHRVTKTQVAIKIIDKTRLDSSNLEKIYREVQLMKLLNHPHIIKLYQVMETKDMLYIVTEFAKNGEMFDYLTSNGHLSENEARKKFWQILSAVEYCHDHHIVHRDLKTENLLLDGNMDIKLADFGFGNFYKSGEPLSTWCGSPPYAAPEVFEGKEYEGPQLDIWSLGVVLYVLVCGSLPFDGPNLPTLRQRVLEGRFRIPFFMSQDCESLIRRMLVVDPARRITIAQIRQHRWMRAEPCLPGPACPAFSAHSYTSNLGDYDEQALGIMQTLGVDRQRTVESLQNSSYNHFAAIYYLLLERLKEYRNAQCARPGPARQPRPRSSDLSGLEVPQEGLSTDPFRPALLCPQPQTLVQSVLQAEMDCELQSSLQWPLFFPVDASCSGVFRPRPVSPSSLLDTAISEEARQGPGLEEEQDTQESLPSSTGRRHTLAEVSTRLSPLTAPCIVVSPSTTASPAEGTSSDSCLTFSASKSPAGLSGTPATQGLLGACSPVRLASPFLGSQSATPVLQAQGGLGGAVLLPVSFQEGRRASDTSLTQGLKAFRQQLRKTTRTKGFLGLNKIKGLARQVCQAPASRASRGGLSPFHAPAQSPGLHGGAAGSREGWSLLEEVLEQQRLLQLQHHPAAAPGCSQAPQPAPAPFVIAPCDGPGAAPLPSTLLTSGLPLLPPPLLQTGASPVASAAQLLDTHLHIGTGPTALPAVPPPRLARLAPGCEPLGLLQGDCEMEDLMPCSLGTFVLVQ
T3 sequence (Q9Y2K2 whole entry): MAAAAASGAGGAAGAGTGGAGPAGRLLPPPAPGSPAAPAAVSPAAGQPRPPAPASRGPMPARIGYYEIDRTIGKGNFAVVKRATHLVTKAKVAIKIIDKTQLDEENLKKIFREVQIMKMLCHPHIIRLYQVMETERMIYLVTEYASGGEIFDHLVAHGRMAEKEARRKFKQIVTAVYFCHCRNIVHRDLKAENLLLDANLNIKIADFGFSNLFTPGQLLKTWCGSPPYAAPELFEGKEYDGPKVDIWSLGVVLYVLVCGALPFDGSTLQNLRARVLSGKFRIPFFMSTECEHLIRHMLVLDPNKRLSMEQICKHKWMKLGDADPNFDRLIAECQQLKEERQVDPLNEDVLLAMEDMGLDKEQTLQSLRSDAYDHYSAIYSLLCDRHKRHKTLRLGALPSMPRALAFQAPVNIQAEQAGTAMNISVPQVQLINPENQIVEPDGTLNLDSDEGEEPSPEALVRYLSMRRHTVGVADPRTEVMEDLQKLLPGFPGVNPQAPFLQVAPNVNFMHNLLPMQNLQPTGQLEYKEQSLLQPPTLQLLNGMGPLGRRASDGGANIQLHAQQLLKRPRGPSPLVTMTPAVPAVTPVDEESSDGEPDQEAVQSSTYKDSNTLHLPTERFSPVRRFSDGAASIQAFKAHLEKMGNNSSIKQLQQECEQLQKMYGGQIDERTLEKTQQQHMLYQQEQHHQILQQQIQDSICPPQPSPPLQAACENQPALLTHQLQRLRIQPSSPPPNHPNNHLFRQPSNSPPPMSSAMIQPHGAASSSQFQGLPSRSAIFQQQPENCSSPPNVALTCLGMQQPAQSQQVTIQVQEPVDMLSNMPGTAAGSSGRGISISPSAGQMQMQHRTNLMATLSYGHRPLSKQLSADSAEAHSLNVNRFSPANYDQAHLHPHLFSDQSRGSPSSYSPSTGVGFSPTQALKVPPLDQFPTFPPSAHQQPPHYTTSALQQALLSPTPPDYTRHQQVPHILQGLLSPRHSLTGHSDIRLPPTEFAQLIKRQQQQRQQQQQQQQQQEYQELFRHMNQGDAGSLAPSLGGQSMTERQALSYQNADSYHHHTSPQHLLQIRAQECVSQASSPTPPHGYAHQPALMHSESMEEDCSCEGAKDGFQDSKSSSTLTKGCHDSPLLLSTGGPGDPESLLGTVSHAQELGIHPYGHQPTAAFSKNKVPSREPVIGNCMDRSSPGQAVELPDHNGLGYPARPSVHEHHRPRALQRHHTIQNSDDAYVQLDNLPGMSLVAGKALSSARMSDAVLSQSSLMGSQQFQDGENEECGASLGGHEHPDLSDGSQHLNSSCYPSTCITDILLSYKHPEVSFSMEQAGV
T2 sequence (Q9H0K1 whole entry): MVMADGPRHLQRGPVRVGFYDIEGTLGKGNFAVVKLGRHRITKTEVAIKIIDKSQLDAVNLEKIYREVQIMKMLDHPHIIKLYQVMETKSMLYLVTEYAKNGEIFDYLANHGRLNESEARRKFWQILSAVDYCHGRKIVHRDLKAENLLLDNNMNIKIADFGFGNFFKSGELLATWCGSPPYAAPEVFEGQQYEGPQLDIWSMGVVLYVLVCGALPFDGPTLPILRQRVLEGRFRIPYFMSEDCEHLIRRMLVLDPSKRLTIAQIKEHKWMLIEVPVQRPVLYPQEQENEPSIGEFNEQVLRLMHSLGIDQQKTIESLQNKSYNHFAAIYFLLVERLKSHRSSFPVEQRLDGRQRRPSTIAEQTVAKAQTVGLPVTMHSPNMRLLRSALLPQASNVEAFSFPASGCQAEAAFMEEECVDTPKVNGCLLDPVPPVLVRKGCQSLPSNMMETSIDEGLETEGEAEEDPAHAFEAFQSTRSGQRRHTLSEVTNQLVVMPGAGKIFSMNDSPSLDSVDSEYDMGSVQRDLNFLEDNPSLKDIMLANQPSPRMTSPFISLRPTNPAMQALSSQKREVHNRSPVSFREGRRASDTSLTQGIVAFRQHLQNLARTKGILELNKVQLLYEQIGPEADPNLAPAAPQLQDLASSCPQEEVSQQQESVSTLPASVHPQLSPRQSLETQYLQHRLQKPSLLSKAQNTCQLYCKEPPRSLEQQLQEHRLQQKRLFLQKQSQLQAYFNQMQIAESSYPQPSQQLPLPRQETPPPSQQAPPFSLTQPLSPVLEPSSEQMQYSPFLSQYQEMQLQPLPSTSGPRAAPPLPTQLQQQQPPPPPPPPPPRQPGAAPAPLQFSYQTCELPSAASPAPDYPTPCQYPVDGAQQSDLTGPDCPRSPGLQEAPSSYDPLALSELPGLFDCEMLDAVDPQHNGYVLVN

Consider `COc1cc(-c2cnc3cc(OCC4CCCN4C(C)C)ccn23)cc(OC(F)F)c1C(=O)NC1CC1` (stereo not drawn) [compound 295, N-cyclopropyl-2-(difluoromethoxy)-4-[7-[(1-isopropylpyrrolidin-2-yl)methoxy]imidazo[1,2-a]pyridin-3-yl]-6-methoxy-benzamide], for which the pIC50 in assay [1] was 6.30 to 7.00; in assay [2], 8.00 to 11.00; in assay [3], 8.00 to 11.00.

For `COc1cc(-c2cnc3cc(OCC4CCCCN4CC#N)ccn23)cc(OC(F)F)c1C(=O)NC1CC1` (stereo not drawn) [compound 269, 4-[7-[[1-(cyanomethyl)-2-piperidyl]methoxy]imidazo [1,2-a]pyridin-3-yl]-N-cyclopropyl-2-(difluoromethoxy)-6-methoxy-benzamide], the pIC50 in assay [1] was 7.00 to 8.00; in assay [2], 7.00 to 8.00; in assay [3], 8.00 to 11.00.

Consider `COc1cc(-c2cnc3cc(OCCN4CCOC(C#N)C4)ccn23)cc(OC(F)F)c1C(=O)NC1CC1` (stereo not drawn) [compound 213, 4-[7-[2-(2-cyanomorpholin-4-yl)ethoxy]imidazo[1,2-a]pyridin-3-yl]-N-cyclopropyl-2-(difluoromethoxy)-6-methoxy-benzamide], for which the pIC50 in assay [1] is 7.00 to 8.00; in assay [2] it was 8.00 to 11.00; in assay [3], 8.00 to 11.00.

Consider `COc1cc(-c2cnc3cc(OCCN4CCN(CCO)CC4)ccn23)cc(OC(F)F)c1C(=O)NC1CC1` [compound 308, N-cyclopropyl-2-(difluoromethoxy)-4-[7-[2-[4-(2-hydroxyethyl)piperazin-1-yl]ethoxy]imidazo[1,2-a]pyridin-3-yl]-6-methoxy-benzamide], for which the pIC50 in assay [1] is 7.00 to 8.00; in assay [2], 8.00 to 11.00; in assay [3], 8.00 to 11.00.

For the molecule `COc1cc(-c2cnc3cc(OCC4(N)COC4)ccn23)cc(OC(F)F)c1C(=O)NC1CC1` [compound 170, 4-[7-[(3-aminooxetan-3-yl)methoxy]imidazo[1,2-a]pyridin-3-yl]-N-cyclopropyl-2-(difluoromethoxy)-6-methoxy-benzamide], the pIC50 is 7.00 to 8.00 in assay [1], 8.00 to 11.00 in assay [2] and 8.00 to 11.00 in assay [3].

Consider `COc1cc(-c2cnc3cc(OCc4nccs4)ccn23)cc(OC(F)F)c1C(=O)NC1CC1` [compound 47, N-cyclopropyl-2-(difluoromethoxy)-6-methoxy-4-[7-(thiazol-2-ylmethoxy)imidazo[1,2-a]pyridin-3-yl]benzamide], for which the figures for the pIC50 in assay [1], in assay [2] and in assay [3] were 7.00 to 8.00, 8.00 to 11.00 and 8.00 to 11.00, respectively.

In the case of `COc1cc(-c2cnc3cc(OCCN4CCCC(C#N)C4)ccn23)cc(OC(F)F)c1C(=O)NC1CC1` (stereo not drawn) [compound 216, 4-[7-[2-(3-cyano-1-piperidyl)ethoxy]imidazo [1,2-a]pyridin-3-yl]-N-cyclopropyl-2-(difluoromethoxy)-6-methoxy-benzamide], the pIC50 in assay [1], in assay [2] and in assay [3] was 8.00 to 11.00 in each case.

Regarding `COc1cc(-c2cnc3cc(OCC(C)(C)C)ccn23)cc(OC(F)F)c1C(=O)NC1CC1` [compound 66, N-cyclopropyl-2-(difluoromethoxy)-4-[7-(2,2-dimethylpropoxy)imidazo [1,2-a]pyridin-3-yl]-6-methoxy-benzamide], the pIC50 in assay [1], in assay [2] and in assay [3] was 8.00 to 11.00 throughout.

As for `COc1cc(-c2cnc3cc(OC4CCCN(C)C4)ccn23)cc(OC)c1C(=O)NCC(F)(F)F` (stereo not drawn) [Cpd 5, 2,6-dimethoxy-4-[7-[(1-methyl-3-piperidyl)oxy]imidazo[1,2-a]pyridin-3-yl]-N-(2,2,2-trifluoroethyl)benzamide], the pIC50 in assay [1] is < 6.30; in assay [2], 6.30 to 7.00; in assay [3], 7.00 to 8.00.

As for `COc1cc(-c2cnc3cc(OC[C@H]4CCN(CCO)C4)ccn23)cc(OC(F)F)c1C(=O)NC1CC1` [Cpd 341, N-cyclopropyl-2-(difluoromethoxy)-4-[7-[[(3S)-1-(2-hydroxyethyl)pyrrolidin-3-yl]methoxy]imidazo[1,2-a]pyridin-3-yl]-6-methoxy-benzamide], the pIC50 is 7.00 to 8.00 in assay [1], 8.00 to 11.00 in assay [2] and 8.00 to 11.00 in assay [3].

Take `COc1cc(-c2cnc3cc(OCCN4CCOCC4)ccn23)cc(C)c1C(=O)NC1CC1` [compound 222, N-cyclopropyl-2-methoxy-6-methyl-4-[7-(2-morpholinoethoxy)imidazo[1,2-a]pyridin-3-yl]benzamide]: the pIC50 was < 6.30 in assay [1], 6.30 to 7.00 in assay [2] and 7.00 to 8.00 in assay [3].

In the case of `COc1cc(-c2cnc3cc(OCC4CCOC4)ccn23)cc(OC(F)F)c1C(=O)NC1CC1` (stereo not drawn) [compound 92, N-cyclopropyl-2-(difluoromethoxy)-6-methoxy-4-[7-(tetrahydrofuran-3-ylmethoxy)imidazo[1,2-a]pyridin-3-yl]benzamide], the pIC50 in assay [1] is 7.00 to 8.00; in assay [2], 8.00 to 11.00; in assay [3], 8.00 to 11.00.

As for `COc1cc(-c2cnc3cc(OCC4CCCCN4C(C)=O)ccn23)cc(OC(F)F)c1C(=O)NC1CC1` (stereo not drawn) [Cpd 141, 4-[7-[(1-acetyl-2-piperidyl)methoxy]imidazo [1,2-a]pyridin-3-yl]-N-cyclopropyl-2-(difluoromethoxy)-6-methoxy-benzamide], the pIC50 in assay [1], in assay [2] and in assay [3] was 8.00 to 11.00 throughout.

For the molecule `COc1cc(-c2cnc3cc(OCC4CCCCN4CC(F)F)ccn23)cc(OC(F)F)c1C(=O)NC1CC1` (stereo not drawn) [compound 149, N-cyclopropyl-4-[7-[[1-(2,2-difluoroethyl)-2-piperidyl]methoxy]imidazo [1,2-a]pyridin-3-yl]-2-(difluoromethoxy)-6-methoxy-benzamide], the figures for the pIC50 in assay [1], in assay [2] and in assay [3] were 7.00 to 8.00, 7.00 to 8.00 and 8.00 to 11.00, respectively.

As for `COc1cc(-c2cnc3cc(OC[C@@H]4COCCO4)ccn23)cc(OC(F)F)c1C(=O)NC1CC1` [compound 120, N-cyclopropyl-2-(difluoromethoxy)-4-[7-[[(2S)-1,4-dioxan-2-yl]methoxy]imidazo[1,2-a]pyridin-3-yl]-6-methoxy-benzamide], the figures for the pIC50 in assay [1], in assay [2] and in assay [3] were 7.00 to 8.00, 8.00 to 11.00 and 8.00 to 11.00, respectively.

`COc1cc(-c2cnc3cc(OCCCN)ccn23)cc(OC(F)F)c1C(=O)NC1CC1` [compound 115, 4-[7-(3-aminopropoxy)imidazo [1,2-a]pyridin-3-yl]-N-cyclopropyl-2-(difluoromethoxy)-6-methoxy-benzamide]: the values for the pIC50 in assay [1], in assay [2] and in assay [3] were 7.00 to 8.00, 8.00 to 11.00 and 8.00 to 11.00, respectively.

`COCCN(CCOc1ccn2c(-c3cc(OC)c(C(=O)NC4CC4)c(OC(F)F)c3)cnc2c1)CC(F)F` [compound 237, N-cyclopropyl-4-[7-[2-[2,2-difluoroethyl(2-methoxyethyl)amino]ethoxy]imidazo[1,2-a]pyridin-3-yl]-2-(difluoromethoxy)-6-methoxy-benzamide]: the figures for the pIC50 in assay [1], in assay [2] and in assay [3] were 7.00 to 8.00, 8.00 to 11.00 and 8.00 to 11.00, respectively.

On to `COc1cc(-c2cnc3cc(OCC(C)(C)CO)ccn23)cc(OC(F)F)c1C(=O)NC1CC1` [compound 74, N-cyclopropyl-2-(difluoromethoxy)-4-[7-(3-hydroxy-2,2-dimethyl-propoxy)imidazo[1,2-a]pyridin-3-yl]-6-methoxy-benzamide], for which the pIC50 in assay [1] was 7.00 to 8.00; in assay [2] it was 8.00 to 11.00; in assay [3], 8.00 to 11.00.

Regarding `COc1cc(-c2cnc3cc(OCC4CCCN4C4COC4)ccn23)cc(OC(F)F)c1C(=O)NC1CC1` (stereo not drawn) [compound 289, N-cyclopropyl-2-(difluoromethoxy)-6-methoxy-4-[7-[[1-(oxetan-3-yl)pyrrolidin-2-yl]methoxy]imidazo[1,2-a]pyridin-3-yl]benzamide], the pIC50 in assay [1] was 7.00 to 8.00; in assay [2] it was 7.00 to 8.00; in assay [3] it was 8.00 to 11.00.

Turning to `COc1cc(-c2cnc3cc(OCCN4CCCC(F)C4)ccn23)cc(OC(F)F)c1C(=O)NC1CC1` (stereo not drawn) [compound 212, N-cyclopropyl-2-(difluoromethoxy)-4-[7-[2-(3-fluoro-1-piperidyl)ethoxy]imidazo[1,2-a]pyridin-3-yl]-6-methoxy-benzamide], the pIC50 in assay [1] is 7.00 to 8.00; in assay [2], 8.00 to 11.00; in assay [3], 8.00 to 11.00.

On to `COc1cc(-c2cnc3cc(OCCNc4ncccn4)ccn23)cc(OC(F)F)c1C(=O)NC1CC1` [compound 368, N-cyclopropyl-2-(difluoromethoxy)-6-methoxy-4-[7-[2-(pyrimidin-2-ylamino)ethoxy]imidazo [1,2-a]pyridin-3-yl]benzamide], for which the pIC50 in assay [1], in assay [2] and in assay [3] was 8.00 to 11.00 in each case.

As for `COc1cc(-c2cnc3cc(OCc4ccccn4)ccn23)cc(OC(F)F)c1C(=O)NC1CC1` [compound 105, N-cyclopropyl-2-(difluoromethoxy)-6-methoxy-4-[7-(2-pyridylmethoxy)imidazo [1,2-a]pyridin-3-yl]benzamide], the pIC50 was 7.00 to 8.00 in assay [1], 8.00 to 11.00 in assay [2] and 8.00 to 11.00 in assay [3].

Take `COc1cc(-c2cnc3cc(OCC4CCN(C)C4)ccn23)cc(OC(F)F)c1C(=O)NC1CC1` (stereo not drawn) [compound 144, N-cyclopropyl-2-(difluoromethoxy)-6-methoxy-4-[7-[(1-methylpyrrolidin-3-yl)methoxy]imidazo[1,2-a]pyridin-3-yl]benzamide]: the pIC50 was 7.00 to 8.00 in assay [1], 8.00 to 11.00 in assay [2] and 8.00 to 11.00 in assay [3].
